# Like-named read-outs stand apart in the source and are kept apart here. Starred links: 1 amine or outer side, 2 acyl side, 3 side chain; linkers in the order of their positions; H or OH if unused. Positions of bridges follow the written chain, without caps; N, C: chain ends. Non-standard residues stand in square brackets, D forms with d. Residues, ends and D or L forms follow the SMILES beside them. *: point of attachment. NMePhe(3-Cl) = CN[C@@H](Cc1cccc(Cl)c1)C(=O)O; NMeF = CN[C@@H](Cc1ccccc1)C(=O)O; NMeGABA = CN(CCCC(=O)[*:2])[*:1]; NMeI = CC[C@H](C)[C@H](NC)C(=O)O; NMeβAla = CN(CCC(=O)[*:2])[*:1]; Aoc(2) = CCCCCC[C@H](N)C(=O)O; NMeL = CN[C@@H](CC(C)C)C(=O)O; NMeV = CN[C@H](C(=O)O)C(C)C; NMeS = CN[C@@H](CO)C(=O)O; NMeA = CN[C@@H](C)C(=O)O; Piperidide = C1CCN(*)CC1; dNMeA = CN[C@H](C)C(=O)O; β3hA = C[C@H](N)CC(=O)O; Abu = CC[C@H](N)C(=O)O; Sar = CNCC(=O)O; tBu = CC(C)(C)*
# Experiments:
# [1] = PAMPA (parallel artificial membrane permeability assay); format: in vitro ADME; settings: for Papp at 18 hours, 50 µM: PAMPA
# Outline: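 Artificial membrane was 10% (w/v) egg lecithin plus 0.5% (w/v) cholesterol in dodecane on a PVDF filter. A 10 mM DMSO stock was added at 0.5% (v/v) to donor buffer (50 mM MOPSO, pH 6.5, 5.0% glycocholic acid). After 18 h at 37 °C, LC/MS or LC/UV gave donor and acceptor levels for Pe.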
# [2] = Metabolic stability in human hepatic microsome; format: in vitro ADME; settings: microsomes
# [3] = membrane permeation rate (Pe), 50 mM MOPSO buffer pH 6.5 with 5.0% glycocholic acid, 37° C., 18 hours, read-out: iPAMPA Pe
# [4] = pH 7.4, human hepatic microsome, NADPH(+), read-out: CL NADPH(+)
SMILES,"Papp at 18 hours, 50 µM [1, 3]","microsomal CLint at 1 uM [2, 4]","Papp at 18 hours, 50 µM ([1]; pH 6.5)","microsomal CLint at 1 uM ([2]; human, pH 7.4, CL NADPH(+))","iPAMPA Pe ([1]; membrane permeation rate (Pe), 50 mM MOPSO buffer pH 6.5 with 5.0% glycocholic acid, 37° C., 18 hours)"
CC[C@H](C)[C@@H]1NC(=O)[C@H](C)N(C)C(=O)[C@H](C)N(C)C(=O)C[C@@H](C(=O)N2CCCCC2)NC(=O)[C@H](CC(C)C)N(C)C(=O)[C@H](Cc2ccccc2)N(C)C(=O)[C@H](C)N(C)C(=O)[C@H]([C@@H](C)O)NC(=O)[C@H](Cc2ccccc2)N(C)C(=O)[C@H](CC(C)C)N(C)C1=O [DP-258] ([NMeA][NMeA]I[NMeL][NMeF]T[NMeA][NMeF][NMeL]D-Piperidide; lactam N-10),52 ×10⁻⁶ cm/s,188 µL/min/mg,–,–,–
CC[C@H](C)[C@@H]1NC(=O)CCCN(C)C(=O)C[C@@H](C(=O)N2CCCCC2)NC(=O)[C@H](Cc2ccccc2)N(C)C(=O)[C@H](CC(C)C)N(C)C(=O)CN(C)C(=O)[C@H]([C@@H](C)O)NC(=O)[C@H](C)N(C)C(=O)[C@H](C(C)C)N(C)C(=O)[C@H](C)NC(=O)[C@H](CC(C)C)N(C)C(=O)[C@H](Cc2ccccc2)N(C)C1=O [DP-468] ([NMeGABA]I[NMeF][NMeL]A[NMeV][NMeA]T[Sar][NMeL][NMeF]D-Piperidide; lactam N-12),27 ×10⁻⁶ cm/s,53 µL/min/mg,–,–,–
CC(C)C[C@H]1C(=O)N[C@@H](Cc2ccccc2)C(=O)N(C)[C@@H](C(C)C)C(=O)N[C@@H]([C@@H](C)O)C(=O)N[C@H](C(=O)N(C)[C@@H](Cc2ccccc2)C(=O)N(C)[C@@H](Cc2ccccc2)C(=O)N[C@@H](C)C(=O)N2CCCCC2)CC(=O)N(C)[C@@H](C)C(=O)N(C)[C@@H](C)C(=O)N[C@@H](C(C)C)C(=O)N(C)[C@@H](Cc2ccccc2)C(=O)NCC(=O)N1C [DP-456] ([NMeA][NMeA]V[NMeF]G[NMeL]F[NMeV]TD[NMeF][NMeF]A-Piperidide; lactam N-10),41 ×10⁻⁶ cm/s,29 µL/min/mg,–,–,–
CC(C)C[C@@H]1NC(=O)[C@H](CC(C)C)N(C)C(=O)[C@H](C)N(C)C(=O)[C@@H](C(C)C)NC(=O)C[C@@H](C(=O)N2CCCCC2)NC(=O)[C@H](CCC(N)=O)NC(=O)[C@H](CC(C)C)N(C)C(=O)CN(C)C(=O)[C@H](CC(C)C)N(C)C(=O)[C@H](Cc2ccccc2)NC(=O)[C@H](Cc2ccccc2)N(C)C1=O [DP-617] ([dV][NMeA][NMeL]L[NMeF]F[NMeL][Sar][NMeL]QD-Piperidide; lactam N-11),29 ×10⁻⁶ cm/s,30 µL/min/mg,–,–,–
CC(C)C[C@H]1C(=O)N(C)[C@@H](Cc2ccccc2)C(=O)N[C@@H]([C@@H](C)O)C(=O)N(C)[C@@H](C)C(=O)N[C@@H](C)C(=O)N(C)[C@@H](Cc2ccccc2)C(=O)N[C@@H](C)C(=O)N(C)[C@@H](C(C)C)C(=O)N(C)[C@@H](C)C(=O)N[C@H](C(=O)N(C)[C@@H](Cc2ccccc2)C(=O)N[C@@H](C)C(=O)N2CCCCC2)CC(=O)N(C)[C@H](C)C(=O)N1C [DP-348] ([dNMeA][NMeL][NMeF]T[NMeA]A[NMeF]A[NMeV][NMeA]D[NMeF]A-Piperidide; lactam N-11),19 ×10⁻⁶ cm/s,17 µL/min/mg,–,–,–
CC(C)C[C@H]1C(=O)NCC(=O)N[C@@H]([C@@H](C)O)C(=O)N(C)[C@@H](C(C)C)C(=O)N[C@@H](Cc2ccccc2)C(=O)N[C@H](C(=O)N(C)[C@@H](Cc2ccccc2)C(=O)N(C)[C@@H](Cc2ccccc2)C(=O)N[C@@H](C)C(=O)N2CCCCC2)CC(=O)N(C)[C@H](C)C(=O)N(C)[C@@H](C)C(=O)N[C@@H](C(C)C)C(=O)N(C)[C@@H](Cc2ccccc2)C(=O)N1C [DP-452] ([dNMeA][NMeA]V[NMeF][NMeL]GT[NMeV]FD[NMeF][NMeF]A-Piperidide; lactam N-10),22 ×10⁻⁶ cm/s,21 µL/min/mg,–,–,–
CC(C)C[C@@H]1NC(=O)[C@H](CCC(=O)O)NC(=O)[C@@H]2CCCN2C(=O)[C@H](CC(C)C)NC(=O)[C@H](CC(C)C)N(C)C(=O)[C@H](Cc2ccccc2)NC(=O)[C@H](C)N(C)C(=O)[C@H](CC(C)C)N(C)C(=O)[C@H](Cc2ccccc2)NC(=O)CN(C)C(=O)C[C@@H](C(=O)N(C)[C@@H](Cc2ccccc2)C(=O)N[C@@H](C)C(=O)N2CCCCC2)NC1=O [DP-595] ([Sar]F[NMeL][NMeA]F[NMeL]LPELD[NMeF]A-Piperidide; lactam N-11),–,–,4.9 ×10⁻⁶ cm/s,9 µL/min/mg,–
CC[C@H](C)[C@H](NC(=O)[C@H](CC(C)C)N(C)C(=O)[C@H](C)N(C)C(=O)[C@@H](NC(=O)[C@H](CC(C)C)N(C)C(=O)[C@@H]1CC(=O)N[C@H](C(C)C)C(=O)N(C)[C@@H](C)C(=O)N(C)[C@@H](Cc2cccc(Cl)c2)C(=O)N(C)[C@@H](CC(C)C)C(=O)N[C@@H]([C@@H](C)O)C(=O)N(C)[C@@H](CC(C)C)C(=O)N1)[C@@H](C)CC)C(=O)N1CCCCC1 [DP-911] ([dV][NMeA][NMePhe(3-Cl)][NMeL]T[NMeL]D[NMeL]I[NMeA][NMeL]I-Piperidide; lactam N-7),–,152 µL/min/mg,–,–,1.0E−07
CCCCCC[C@@H]1NC(=O)[C@H](CO)N(C)C(=O)[C@H](CC(C)C)N(C)C(=O)[C@H](CC(C)C)N(C)C(=O)[C@H](CC(C)C)N(C)C(=O)[C@@H](C)NC(=O)[C@H](CC)NC(=O)[C@H](CC(C)C)N(C)C(=O)C[C@H](C)NC(=O)[C@H](CC(C)C)N(C)C(=O)CN(C)C1=O [DP-645] (cyclo([Abu][dA][NMeL][NMeL][NMeL][NMeS][Aoc(2)][Sar][NMeL][β3hA][NMeL])),49 ×10⁻⁶ cm/s,74 µL/min/mg,–,–,–
CC[C@H](C)[C@@H]1NC(=O)[C@H](Cc2ccccc2)N(C)C(=O)[C@@H](C)NC(=O)C[C@@H](C(=O)N(C)[C@@H](CC(C)C)C(=O)NCC(=O)N(C)[C@@H](CC(C)C)C(=O)N[C@@H](C)C(=O)N2CCCCC2)NC(=O)[C@H](C(C)C)NC(=O)CN(C)C(=O)[C@H]([C@@H](C)O)NC1=O [DP-568] ([dA][NMeF]IT[Sar]VD[NMeL]G[NMeL]A-Piperidide; lactam N-7),4.4 ×10⁻⁶ cm/s,30 µL/min/mg,–,–,–
CC(C)C[C@H]1C(=O)N(C)[C@@H](C)C(=O)N[C@H](C(=O)N(C)[C@@H](Cc2ccccc2)C(=O)N[C@@H](C)C(=O)N2CCCCC2)CC(=O)N(C)[C@H](C)C(=O)N(C)[C@@H](C)C(=O)N[C@@H](C)C(=O)N(C)[C@@H](Cc2ccccc2)C(=O)N(C)[C@@H](C)C(=O)N(C)[C@@H](Cc2ccccc2)C(=O)N[C@@H]([C@@H](C)O)C(=O)N(C)[C@@H](C)C(=O)N1C [DP-443] ([dNMeA][NMeA]A[NMeF][NMeA][NMeF]T[NMeA][NMeL][NMeA]D[NMeF]A-Piperidide; lactam N-11),9.1 ×10⁻⁶ cm/s,17 µL/min/mg,–,–,–
CC(C)C[C@H]1C(=O)N[C@H](C(=O)N2CCCCC2)CC(=O)N[C@H](C)C(=O)N(C)[C@@H](Cc2ccccc2)C(=O)N(C)[C@@H](CC(C)C)C(=O)N[C@@H]([C@@H](C)O)C(=O)N(C)[C@@H](CC(C)C)C(=O)N[C@@H](COC(C)(C)C)C(=O)N1C [DP-684] ([dA][NMeF][NMeL]T[NMeL]S(tBu)[NMeL]D-Piperidide; lactam N-8),23 ×10⁻⁶ cm/s,126 µL/min/mg,–,–,–
CC[C@H](C)[C@H]1C(=O)N(C)[C@@H](CC(C)C)C(=O)N[C@H](C(=O)N2CCCCC2)CC(=O)N(C)[C@H](C)C(=O)N(C)[C@@H](CC(C)C)C(=O)N[C@@H](CC(C)C)C(=O)N(C)[C@@H](Cc2ccccc2)C(=O)N[C@@H](COC(C)(C)C)C(=O)N(C)[C@@H](Cc2ccccc2)C(=O)N[C@@H]([C@@H](C)O)C(=O)N(C)[C@@H](C)C(=O)N1C [DP-49] ([dNMeA][NMeL]L[NMeF]S(tBu)[NMeF]T[NMeA][NMeI][NMeL]D-Piperidide; lactam N-11),–,–,18 ×10⁻⁶ cm/s,51 µL/min/mg,–
CC[C@H](C)[C@H]1C(=O)N(C)[C@@H](CC(C)C)C(=O)N[C@H](C(=O)N2CCCCC2)CC(=O)N[C@H](C)C(=O)N(C)[C@@H](CC(C)C)C(=O)N[C@@H](CC(C)C)C(=O)N(C)[C@@H](Cc2ccccc2)C(=O)N[C@@H](COC(C)(C)C)C(=O)N(C)[C@@H](Cc2ccccc2)C(=O)N[C@@H]([C@@H](C)O)C(=O)N(C)[C@@H](C)C(=O)N1C [DP-96] ([dA][NMeL]L[NMeF]S(tBu)[NMeF]T[NMeA][NMeI][NMeL]D-Piperidide; lactam N-11),–,–,13 ×10⁻⁶ cm/s,51 µL/min/mg,–
CC[C@H](C)[C@@H]1NC(=O)[C@H](CC(C)C)N(C)C(=O)CN(C)C(=O)[C@H]([C@@H](C)O)NC(=O)[C@H](C)N(C)C(=O)C[C@@H](C(=O)N(C)[C@@H](C)C(=O)N2CCC[C@H]2C(=O)N[C@@H](C)C(=O)N2CCCCC2)NC(=O)[C@H](CC(C)C)N(C)C(=O)[C@H](Cc2ccccc2)N(C)C(=O)[C@H](CC(C)C)N(C)C1=O [DP-661] ([NMeA]T[Sar][NMeL]I[NMeL][NMeF][NMeL]D[NMeA]PA-Piperidide; lactam N-9),25 ×10⁻⁶ cm/s,17 µL/min/mg,–,–,–
CC(C)C[C@H]1C(=O)N(C)[C@@H](CC(C)C)C(=O)N[C@H](C(=O)N2CCCCC2)CC(=O)N(C)CCCC(=O)N(C)[C@@H](Cc2ccccc2)C(=O)N[C@@H]([C@@H](C)O)C(=O)N(C)[C@@H](CC(C)C)C(=O)N[C@@H](COC(C)(C)C)C(=O)N1C [DP-686] ([NMeGABA][NMeF]T[NMeL]S(tBu)[NMeL][NMeL]D-Piperidide; lactam N-8),36 ×10⁻⁶ cm/s,227 µL/min/mg,–,–,–
CC[C@H](C)[C@@H]1NC(=O)[C@H](CC(C)C)N(C)C(=O)[C@H](C)N(C)C(=O)[C@H]([C@@H](C)O)NC(=O)[C@H](C)N(C)C(=O)[C@H](C(C)C)N(C)C(=O)[C@H](Cc2ccccc2)NC(=O)CCN(C)C(=O)C[C@@H](C(=O)N(C)[C@@H](Cc2ccccc2)C(=O)N[C@@H](C)C(=O)N2CCCCC2)NC(=O)[C@H](C)N(C)C1=O [DP-490] ([NMeβAla]F[NMeV][NMeA]T[NMeA][NMeL]I[NMeA]D[NMeF]A-Piperidide; lactam N-10),11 ×10⁻⁶ cm/s,27 µL/min/mg,–,–,–

# — patent publication US9409952B2, “Peptide-compound cyclization method” (Chugai Seiyaku Kabushiki Kaisha, priority 2011, dated 2016)
